Assay results published in US12398119B2, “Piperazine azaspiro derivatives” (PFIZER INC., priority 2018, dated 2025).
Like-named read-outs stand apart in the source and are kept apart here.

Molecular target: T1, Human M4 mAChR (Homo sapiens, UniProt P08173)
T1 construct: host or cells: HEK293 (Sor-L9 HEK293 human/M4/GloSensor Cell Clone Number 40)
T1 sequence (P08173 1-479): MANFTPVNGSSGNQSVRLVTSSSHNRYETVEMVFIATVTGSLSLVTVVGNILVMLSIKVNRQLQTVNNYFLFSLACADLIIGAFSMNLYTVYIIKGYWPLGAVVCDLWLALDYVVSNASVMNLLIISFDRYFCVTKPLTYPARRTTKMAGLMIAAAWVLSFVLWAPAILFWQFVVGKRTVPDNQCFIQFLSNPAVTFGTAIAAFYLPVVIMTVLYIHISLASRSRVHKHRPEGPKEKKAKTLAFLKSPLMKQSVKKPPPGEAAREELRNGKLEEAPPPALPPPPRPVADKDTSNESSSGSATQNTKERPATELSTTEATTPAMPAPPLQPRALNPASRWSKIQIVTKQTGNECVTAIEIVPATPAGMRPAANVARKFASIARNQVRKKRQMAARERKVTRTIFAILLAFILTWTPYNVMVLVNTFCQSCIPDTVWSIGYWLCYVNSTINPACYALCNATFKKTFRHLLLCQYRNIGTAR
Assay: Muscarinic hM4 Agonist GloSensor cAMP Assay
Assay type: cell-based
Protocol: Muscarinic hM4 Agonist GloSensor cAMP Assay Methods
Compounds were prepared in advance of the assay. Test compounds were solubilized in 100% dimethyl sulfoxide (DMSO, Sigma D8418) to a concentration of 30 mM. A 10-point intermediate dilution series using half log dilutions was created in 100% DMSO with a top concentration of 4 mM. The serially diluted compounds were spotted as 200 nL/well in a 384-well plate (Matrix Catalog Number 4325). The final compound concentration range in the assay was […] to 0.3 nM with a final DMSO concentration of 0.25%.
Human M4 mAChR expressing stable cell lines were generated using a parental HEK cell expressing the GloSensor construct (Promega Sor-L9 HEK293 human/M4/GloSensor Cell Clone Number 40). The cells were grown in 90% Dulbecco's Modified Eagle Medium (DMEM, Gibco 11960), 10% fetal bovine serum (FBS, Hyclone CH.30160-03), 1% Penicillin/Streptomycin (Gibco 15070-063), 500 µg/mL Geneticin (Gibco 10131-027), 200 µg/mL Hygromycin B (Invitrogen 10687-010) and 1% Glutamax (Thermo Fisher 35050061).
One day prior to assay, the cells were lifted using dissociation buffer (Gibco 13151-014) and spun in a centrifuge at 250 times gravity for 5 minutes at room temperature. Supernatant was removed and the cell pellet was resuspended in growth media to a concentration of […]. Cells were then added to white poly-d-lysine coated plates (Becton Dickinson 356661) as 40 μL per well (25,000 cells) and incubated overnight (20-24 hours) in a 37° C. humidified incubator with 5% carbon dioxide (C02).
The following day, culture media was removed from the cell plates and replaced with […] equilibration medium containing 88% CO2-independent medium (Invitrogen 18045088), 10% FBS and 2% GloSensor cAMP reagent (Promega E1291) that had been warmed to 37° C. Plates were then covered and incubated for 2 hours at room temperature while protected from light.
To the previously prepared serially diluted compound plates, 200 nL of 4 mM ACh (Sigma A2661, 10 μM final) or 200 nL of 100% DMSO (0.25% final) was added to the positive and negative control wells, respectively. Compound plates were then diluted by adding 16 μL of C02-independent media containing 10% FBS and an EC80 concentration of isoproterenol (Sigma 16504). Prior to compound testing, concentration response curves were run for isoproterenol to determine the EC80 concentration. At the end of the 2 hour equilibration, 10 µL was transferred from the compound plates to the cell plates. The cell plates were incubated an additional 7 minutes at room temperature and then read using a Multi-label EnVision plate reader (Perkin Elmer) for luminescence.
The raw data, expressed as relative light units, was analyzed using Activity Base (IDBS). The percent effect at each compound concentration was calculated based on and relative to the amount of cAMP produced by the positive and negative control wells contained on each assay plate. The positive control wells contained an EC100 concentration of ACh and the negative control wells contained only DMSO. The concentration and % effect values were fit using a four-parameter logistic dose response equation, and the concentration required for 50% effect (EC50) was determined as well as the maximum asymptote of the concentration response curve to define the efficacy.

[1] = Emax: maximum asymptote of concentration response curve, relative to ACh positive control (EC100) and DMSO, geometric mean, read-out: % maximum effect
[2] = HEK293 human/M4/GloSensor cells, EC80 isoproterenol, geometric mean, number of determinations in parentheses, read-out: EC50
[3] = enantiomers reported in footnotes to Table 1, number of determinations in parentheses, read-out: M4 EC50
[4] = enantiomers reported in footnotes to Table 1, number of determinations in parentheses, read-out: M4 Emax

Row | Compound | Emax [1] [%] | EC50 [2] [nM] | EC50 [3] [nM] | Emax [4] [%]
1 | CCOC(=O)N1CC2(CCC(N3CCN(c4cccnc4OC4COC4)CC3)C2)C1 (stereo not drawn) [Example 25, ethyl 6-{4-[2-(oxetan-3-yloxy)pyridin-3-yl]piperazin-1-yl}-2-azaspiro[3.4]octane-2-carboxylate] | 83.1 | 5.37 | – | –
2 | CCOC(=O)N1CC2(CCC(N3CCN(c4ncccc4-c4ncco4)CC3)C2)C1 (stereo not drawn) [Example 18, ethyl 6-{4-[3-(1,3-oxazol-2-yl)pyridin-2-yl]piperazin-1-yl}-2-azaspiro[3.4]octane-2-carboxylate] | 54.9 | 5.11 | – | –
3 | CCOC(=O)N1CC2(CCC(N3CCN(c4ncccc4N4CC(C#N)C4)CC3)C2)C1 (stereo not drawn) [Example 30, ethyl 6-{4-[3-(3-cyanoazetidin-1-yl)pyridin-2-yl]piperazin-1-yl}-2-azaspiro[3.4]octane-2-carboxylate] | 70.3 | 2.28 | – | –
4 | CCOC(=O)N1CC2(CCC(N3CCN(c4ncccc4-c4cncc(OC(F)F)c4)CC3)C2)C1 (stereo not drawn) [Example 37, ethyl 6-{4-[5′-(difluoromethoxy)-3,3′-bipyridin-2-yl]piperazin-1-yl}-2-azaspiro[3.4]octane-2-carboxylate] | 24.7 | 6.1 | – | –
5 | CCOC(=O)N1CC2(CC[C@@H](N3CCN(c4ncccc4-c4cnn(CCCCC#N)c4)CC3)C2)C1 [Example 49, ethyl (6R)-6-(4-{3-[1-(4-cyanobutyl)-1H-pyrazol-4-yl]pyridin-2-yl}piperazin-1-yl)-2-azaspiro[3.4]octane-2-carboxylate] | 60.9 | 0.596 | – | –
6 | CCOC(=O)N1CC2(CCC(N3CCN(c4ncccc4N4CCC(c5ccnn5C)CC4)CC3)C2)C1 (stereo not drawn) [Example 28, ethyl 6-(4-{3-[4-(1-methyl-1H-pyrazol-5-yl)pipendin-1-yl]pyridin-2-yl}piperazin-1-yl)-2-azaspiro[3.4]octane-2-carboxylate] | 60 | 1.78 | – | –
7 | CCOC(=O)N1CC2(CCC(N3CCN(c4ncccc4-c4ccc5nccn5c4)CC3)C2)C1 (stereo not drawn) [Example 39, ethyl 6-{4-[3-(imidazo[1,2-a]pyridin-6-yl)pyridin-2-yl]piperazin-1-yl}-2-azaspiro[3.4]octane-2-carboxylate] | 59.6 | 11.7 | – | –
8 | CCOC(=O)N1CC2(CCC(N3CCN(c4ncccc4-c4cnc(OC)cn4)CC3)C2)C1 (single isomer, unassigned) [Example 3, ethyl 6-{4-[3-(5-methoxypyrazin-2-yl)pyridin-2-yl]piperazin-1-yl}-2-azaspiro[3.4]octane-2-carboxylate] | 83.7 | 3.87 | – | –
9 | CCOC(=O)N1CC2(CCC(N3CCN(c4ncccc4C4CC4)CC3)C2)C1 (single isomer, unassigned) [enantiomer of Example 22, ethyl 6-[4-(3-cyclopropylpyridin-2-yl)piperazin-1-yl]-2-azaspiro[3.4]octane-2-carboxylate] | – | – | 11.6 | 103
10 | CCOC(=O)N1CC2(CCC(N3CCN(c4ncccc4-c4cnc(C#N)cn4)CC3)C2)C1 (single isomer, unassigned) [enantiomer of Example 41, ethyl 6-{4-[3-(5-cyanopyrazin-2-yl)pyridin-2-yl]piperazin-1-yl}-2-azaspiro[3.4]octane-2-carboxylate] | – | – | 268 | 52.7
11 | CCOC(=O)N1CC2(CCC(N3CCN(c4ncccc4C)CC3)C2)C1 (single isomer, unassigned) [enantiomer of Example 21, ethyl 6-[4-(3-methylpyridin-2-yl)piperazin-1-yl]-2-azaspiro[3.4]octane-2-carboxylate] | – | – | > 241 | 76.2
12 | CCOC(=O)N1CC2(CCC(N3CCN(c4ncccc4-c4sc(C)nc4C)CC3)C2)C1 (stereo not drawn) [Example 36, ethyl 6-{4-[3-(2,4-dimethyl-1,3-thiazol-5-yl)pyridin-2-yl]piperazin-1-yl}-2-azaspiro[3.4]octane-2-carboxylate] | 80.6 | 7.72 | – | –
13 | CCOC(=O)N1CC2(CCC(N3CCN(c4ncccc4C)CC3)C2)C1 (single isomer, unassigned) [Example 21, ethyl 6-[4-(3-methylpyridin-2-yl)piperazin-1-yl]-2-azaspiro[3.4]octane-2-carboxylate] | 96.8 | 4.01 | – | –
14 | CCOC(=O)N1CC2(CCC(N3CCN(c4ncccc4N4CCC(F)(F)C4)CC3)C2)C1 (stereo not drawn) [Example 29, ethyl 6-{4-[3-(3,3-difluoropyrrolidin-1-yl)pyridin-2-yl]piperazin-1-yl}-2-azaspiro[3.4]octane-2-carboxylate] | 84 | 4.45 | – | –
15 | CCOC(=O)N1CC2(CC[C@@H](N3CCN(c4ncccc4N4CC5(COC5)C4)CC3)C2)C1 [Example 44, ethyl (6R)-6-{4-[3-(2-oxa-6-azaspiro[3.3]hept-6-yl)pyridin-2-yl]piperazin-1-yl}-2-azaspiro[3.4]octane-2-carboxylate] | 92.5 | 1 | – | –
16 | CCOC(=O)N1CC2(CC[C@@H](N3CCN(c4ncccc4-c4cscn4)CC3)C2)C1 [Example 4, ethyl (6R)-6-{4-[3-(1,3-thiazol-4-yl)pyridin-2-yl]piperazin-1-yl}-2-azaspiro[3.4]octane-2-carboxylate] | 87.2 | 2.17 | – | –
17 | CCOC(=O)N1CC2(CC[C@H](N3CCN(c4ncccc4OC)CC3)C2)C1 [Example 7, ethyl (6S)-6-[4-(3-methoxypyridin-2-yl)piperazin-1-yl]-2-azaspiro[3.4]octane-2-carboxylate] | 47.7 | 425 | – | –
18 | CCOC(=O)N1CCC2(CC(N3CCN(c4ncccc4-c4ccc(C#N)cn4)CC3)C2)C1 (single isomer, unassigned) [Example 23, ethyl 2-[4-(5-cyano-2,3′-bipyridin-2′-yl)piperazin-1-yl]-6-azaspiro[3.4]octane-6-carboxylate] | 85 | 143 | – | –
19 | CCOC(=O)N1CC2(CC[C@@H](N3CCN(c4nccnc4N4CCC(OC)CC4)CC3)C2)C1 [Example 43, ethyl (6R)-6-{4-[3-(4-methoxypiperidin-1-yl)pyrazin-2-yl]piperazin-1-yl}-2-azaspiro[3.4]octane-2-carboxylate] | 55.5 | 1.51 | – | –
20 | CCOC(=O)N1CC2(CC(N3CCN(c4ncccc4-c4sncc4C)CC3)C2)C1 [Example 31, ethyl 6-{4-[3-(4-methyl-1,2-thiazol-5-yl)pyridin-2-yl]piperazin-1-yl}-2-azaspiro[3.3]heptane-2-carboxylate] | 101 | 13.5 | – | –
21 | CCOC(=O)N1CC2(CC(N3CCN(c4ncccc4-c4ccc(C#N)cn4)CC3)C2)C1 [Example 24, ethyl 6-[4-(5-cyano-2,3′-bipyridin-2′-yl)piperazin-1-yl]-2-azaspiro[3.3]heptane-2-carboxylate] | 70.6 | 53.8 | – | –
